Details: 101.33 kPa, Crystal, Small (less than 1 g) adiabatic calorimetry

C[C@@H](O)[C@H](N)C(=O)O [L-threonine]
Details | molar entropy [J/K/mol]
5 K | 0.02162
10 K | 0.1746
15 K | 0.6735
20 K | 1.713
25 K | 3.326
30 K | 5.488
35 K | 8.065
40 K | 10.89
45 K | 13.89
50 K | 17.13
60 K | 23.7
70 K | 30.6
80 K | 37.33
90 K | 43.98
100 K | 50.55
110 K | 57.04
120 K | 63.44
130 K | 69.68
140 K | 75.91
150 K | 82.06
160 K | 88.05
170 K | 93.95
180 K | 99.86
190 K | 105.59
200 K | 111.33
210 K | 116.9
220 K | 122.47
230 K | 128.04
240 K | 133.45
250 K | 138.85
260 K | 144.26
270 K | 149.58
280 K | 154.82
290 K | 160.14
298.15 K | 164.38
300 K | 165.29
310 K | 170.53
320 K | 175.6
330 K | 180.67
340 K | 185.75
350 K | 190.73
360 K | 195.72
370 K | 200.71

From the NIST ThermoML archive (doi:10.1016/j.jct.2017.09.022)
